Results as given in patent publication US20210395650A1, “COMPOUNDS STABILIZING HYDROLASES IN LIQUIDS” (BASF SE, priority 2018, published 2021).
Counter-ions that a name gives are not always drawn.

Molecular target: T1, Savinase® 16.0L (Lederbergia lenta, UniProt P29600)
T1 construct: purchased Sigma-Aldrich
T1 sequence (P29600 1-269): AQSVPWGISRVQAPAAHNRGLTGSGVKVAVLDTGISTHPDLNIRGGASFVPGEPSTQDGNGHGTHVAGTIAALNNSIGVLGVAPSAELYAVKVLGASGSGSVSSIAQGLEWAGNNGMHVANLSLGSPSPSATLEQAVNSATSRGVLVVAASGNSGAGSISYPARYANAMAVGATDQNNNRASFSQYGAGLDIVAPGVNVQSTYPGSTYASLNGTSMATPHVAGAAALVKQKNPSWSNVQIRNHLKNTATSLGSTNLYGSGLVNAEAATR
Test: Protease storage stability in liquid formulations at 37° C. (Suc-AAPF-pNA assay)
Format: biochemical
Conditions: 0.7 wt% Savinase 16.0 L
Method: The storage stability of protease was assessed at 37° C.
Base test formulations were manufactured by making base formulations I to V by mixing the components according to Table 1.
Protease used: Savinase® 16.0L (CAS-No. 9014-01-1, EC-No. 232-752-2) was purchased from Sigma-Aldrich.
The respective component (a) or comparative compound was added, if applicable, to the respective base formulation in amounts as indicated in Table 1.
The amount of protease as provided in Table 1 refers to active protein.
Water was added to accomplish the balance to 100.
Savinase activity at certain points in time as indicated in Table 2 was be determined by employing Succinyl-Ala-Ala-Pro-Phe-p-nitroanilide (Suc-AAPF-pNA, short AAPF) as substrate. pNA is cleaved from the substrate molecule by proteolytic cleavage, resulting in release of yellow color of free pNA which was determined by measuring OD405. Measurements were done at 20° C.
The proteolytic activity values provided in Table 3 were calculated referring to the 100% value determined in the reference formulation at the time 0.
The nomenclature of formulations is as follows: the Roman number before the full stop characterizes the base formulation, the Arabian number the type of compound (A. # compound according to invention (component (a)); (B. #) comparative compound).

[1] = base formulation I, 2.5 wt% compound, 3 d
[2] = base formulation I, 2.5 wt% compound, 7 d
[3] = base formulation I, 2.5 wt% compound, 14 d
[4] = base formulation I, 2.5 wt% compound, 21 d
[5] = base formulation I, 2.5 wt% compound, 28 d
[6] = base formulation I, 2.5 wt% compound, 35 d
[7] = base formulation III, 2.0 wt% compound, 3 d
[8] = base formulation III, 2.0 wt% compound, 7 d
[9] = base formulation III, 2.0 wt% compound, 14 d
[10] = base formulation III, 2.0 wt% compound, 21 d
[11] = base formulation III, 2.0 wt% compound, 28 d
[12] = base formulation III, 2.0 wt% compound, 35 d
[13] = base formulation II, 2.5 wt% compound, 3 d
[14] = base formulation II, 2.5 wt% compound, 7 d
[15] = base formulation II, 2.5 wt% compound, 14 d
[16] = base formulation II, 2.5 wt% compound, 21 d
[17] = base formulation II, 2.5 wt% compound, 28 d
[18] = base formulation II, 2.5 wt% compound, 35 d

Compound	protease activity in the course of time of storage at 37° C. [1] [%]	protease activity in the course of time of storage at 37° C. [2] [%]	protease activity in the course of time of storage at 37° C. [3] [%]	protease activity in the course of time of storage at 37° C. [4] [%]	protease activity in the course of time of storage at 37° C. [5] [%]	protease activity in the course of time of storage at 37° C. [6] [%]	protease activity in the course of time of storage at 37° C. [7] [%]	protease activity in the course of time of storage at 37° C. [8] [%]	protease activity in the course of time of storage at 37° C. [9] [%]	protease activity in the course of time of storage at 37° C. [10] [%]	protease activity in the course of time of storage at 37° C. [11] [%]	protease activity in the course of time of storage at 37° C. [12] [%]	protease activity in the course of time of storage at 37° C. [13] [%]	protease activity in the course of time of storage at 37° C. [14] [%]	protease activity in the course of time of storage at 37° C. [15] [%]	protease activity in the course of time of storage at 37° C. [16] [%]	protease activity in the course of time of storage at 37° C. [17] [%]	protease activity in the course of time of storage at 37° C. [18] [%]	further results
O=C(O)CC(O)(CC(=O)O)C(=O)O [B.1, citric acid, reference compound]	94	86	76	67	62	57	92	84	75	65	60	53	–	–	–	–	–	–	protease activity in the course of time of storage at 37° C. (base formulation V, 2.0 wt% compound, 3 d): 93%; protease activity in the course of time of storage at 37° C. (base formulation V, 2.0 wt% compound, 7 d): 86%; protease activity in the course of time of storage at 37° C. (base formulation V, 2.0 wt% compound, 14 d): 75%; protease activity in the course of time of storage at 37° C. (base formulation V, 2.0 wt% compound, 21 d): 65%; protease activity in the course of time of storage at 37° C. (base formulation V, 2.0 wt% compound, 28 d): 57%; protease activity in the course of time of storage at 37° C. (base formulation V, 2.0 wt% compound, 35 d): 50%
O=C(O)CC(O)(CC(=O)O)C(=O)O [B.2, citric acid trisodium salt, reference compound]	–	–	–	–	–	–	–	–	–	–	–	–	95	82	75	66	63	60	protease activity in the course of time of storage at 37° C. (base formulation I, 2.5 wt% compound, 3 d, trisodium salt): 95%; protease activity in the course of time of storage at 37° C. (base formulation I, 2.5 wt% compound, 7 d, trisodium salt): 84%; protease activity in the course of time of storage at 37° C. (base formulation I, 2.5 wt% compound, 14 d, trisodium salt): 68%; protease activity in the course of time of storage at 37° C. (base formulation I, 2.5 wt% compound, 21 d, trisodium salt): 64%; protease activity in the course of time of storage at 37° C. (base formulation I, 2.5 wt% compound, 28 d, trisodium salt): 59%; protease activity in the course of time of storage at 37° C. (base formulation I, 2.5 wt% compound, 35 d, trisodium salt): 55%; protease activity in the course of time of storage at 37° C. (base formulation III, 2.0 wt% compound, 3 d, trisodium salt): 93%; protease activity in the course of time of storage at 37° C. (base formulation III, 2.0 wt% compound, 7 d, trisodium salt): 83%; protease activity in the course of time of storage at 37° C. (base formulation III, 2.0 wt% compound, 14 d, trisodium salt): 73%; protease activity in the course of time of storage at 37° C. (base formulation III, 2.0 wt% compound, 21 d, trisodium salt): 62%; protease activity in the course of time of storage at 37° C. (base formulation III, 2.0 wt% compound, 28 d, trisodium salt): 57%; protease activity in the course of time of storage at 37° C. (base formulation III, 2.0 wt% compound, 35 d, trisodium salt): 50%; protease activity in the course of time of storage at 37° C. (base formulation IV, 2.0 wt% compound, 3 d): 91%; protease activity in the course of time of storage at 37° C. (base formulation IV, 2.0 wt% compound, 7 d): 86%; protease activity in the course of time of storage at 37° C. (base formulation IV, 2.0 wt% compound, 14 d): 70%; protease activity in the course of time of storage at 37° C. (base formulation IV, 2.0 wt% compound, 21 d): 64%; protease activity in the course of time of storage at 37° C. (base formulation IV, 2.0 wt% compound, 28 d): 58%; protease activity in the course of time of storage at 37° C. (base formulation IV, 2.0 wt% compound, 35 d): 52%
CCOC(=O)C(=O)OCC [B.3, diethyloxalate, reference compound]	90	86	70	65	62	58	92	85	74	60	55	51	–	–	–	–	–	–	–
CC(=O)OCC(COC(C)=O)OC(C)=O [B.4, glyceroltriacetate, reference compound]	91	84	70	66	61	56	–	–	–	–	–	–	87	80	73	58	57	54	–
Diethylcitrate [A.7]	95	91	85	81	76	69	96	93	84	83	76	72	98	96	94	90	87	83	protease activity in the course of time of storage at 37° C. (base formulation I, 2.5 wt% compound, T0): 100%; protease activity in the course of time of storage at 37° C. (base formulation II, 2.5 wt% compound, T0): 98%; protease activity in the course of time of storage at 37° C. (base formulation III, 2.0 wt% compound, T0): 100%
